Results taken from PubChem BioAssay AID2060612 (Molecular Pharmacology Branch, DTP, NCI, 2025).

System: 565232-114-T-J1-PDC complex spheroid viability
Assay: Anticancer human tumor 565232-114-T-J1-PDC patient-derived bladder carcinoma cell line growth inhibition [CLK]
Conditions: for IC50: curve of first compound; for viability, T/C: stronger effect = lower value
Text: A high-throughput screen of multi-cell type tumor spheroids was designed to identify active combinations of […] and targeted small molecules. Complex spheroids include a stromal component modeled by human endothelial cells (HUVEC) and fibroblasts modeled by human mesenchymal stem cells (MSCs). The concentration ranges selected for each drug and investigational agent were based upon clinically achievable concentrations if the clinical Cmax of the agent was known.
Compounds. The drugs and investigational agents: cirtuvivint (SM08502; NSC835563), CC-671 (NSC850746), vemurafenib (NSC761431), tapotoclax (NSC804041), sotorasib (NSC818433), adagrasib (NSC831453), MRTX-1133 (NSC836407), BAY2416964 (NSC825713), copanlisib (NSC816437), inavolisib (NSC800729), abemaciclib (NSC768073), osimertinib (NSC779217), entinostat (NSC756642), eltanexor (KPT-8602, NSC794443), venetoclax (NSC766270), ceralasertib (NSC777638), bortezomib (NSC756655), olaparib (NSC753686), talazoparib (NSC767125), alisertib (NSC759677), peposertib (NSC802822), gemcitabine (NSC613327), 5-fluorouracil (NSC19893), SN-38 (NSC673596), oxaliplatin (NSC266046), paclitaxel (NSC125973), and doxorubicin (NSC123127), were obtained from the National Cancer Institute (NCI) Developmental Therapeutics Program Chemical Repository. The FDA-approved anticancer drug set is available from the Developmental Therapeutics Program at https://dtp.cancer.gov/organization/dscb/obtaining/available plates.htm. […] The stock solutions were prepared in dimethyl sulfoxide (DMSO, Sigma-Aldrich, St. Louis, MO, cat. D2650), except for the platinum complexes which were prepared in saline (Quality Biological, Gaithersburg, MD, cat. 114-055-101), at 800-fold the tested concentration and stored at -70 degrees C prior to their use. All drugs and investigational agents were tested over a range starting from a high concentration at or near the clinical Cmax and decreasing in half-log increments. If the clinical Cmax for an agent had not been determined, the highest concentration tested was 10 microM.
Cell Culture. All cells were maintained in an incubator at 37 degrees C and 5% CO2 with 95% humidity. The PDC lines were cultured according to standard operating procedures established by the NCI PDMR. Briefly, all PDCs were thawed and cultured in Matrigel-coated flasks prepared with a working solution of 1X Ham's F-12 nutrient mix, without supplementation (Invitrogen, Waltham, MA, cat. 11765054), 100 U/mL penicillin-streptomycin (Invitrogen, cat. 15140122), and 2.5% Matrigel (Corning Inc., Corning, NY, cat. 354248) for the first three passages. The 947758-054-R-J2-PDC line was cultured in 6B/Colon 1A media, which includes advanced DMEM/F-12 (Thermo Fisher Scientific, cat. 12634028), 10 mM HEPES (Thermo Fisher Scientific, cat. 15630080), 1X GlutaMAX supplement (Thermo Fisher Scientific, cat. 35050061), 0.1 mg/mL primocin (InvivoGen, cat. ant-pm-2), 10% defined fetal bovine serum, heat inactivated (HyClone Laboratories Inc., cat. SH30070.03HI), 1.25 mM N-Acetyl-L-cysteine (Sigma-Aldrich, cat. A9165), 10 mM nicotinamide (Sigma-Aldrich, cat. N0636), 1X B-27 supplement (Thermo Fisher Scientific, cat. 17504044), 1X N-2 supplement (Thermo Fisher Scientific, cat. 17502048), and 10 microM Y-27632 dihydrochloride (Tocris Bioscience, cat. 1254). The 876862-298-R-J1-PDC was cultured in 6E media, which includes all 6B/Colon 1A media components plus 50% L-WRN conditioned media (ATCC, cat. CRL-3276), 50 ng/mL recombinant human EGF recombinant protein (hEGF; Thermo Fisher Scientific, cat. PHG0311), 10 ng/mL recombinant human fibroblast growth factor 10 (hGFG-10; PeproTech, cat. 100-26), 1 ng/mL recombinant human fibroblast growth factor 2 (hFGF-2; PeproTech, cat. 100-18B), and 1 µM prostaglandin E2 (PGE2; Tocris, cat. 2296). The 227483-062-R1-J1-PDC line was cultured in Panc media, containing all 6E components except hFGF-2, with the addition of 500 nM SB-431542 (Selleckchem, cat. S1067) and 10 nM gastrin (Tocris, cat. 3006). […]

[1] = second compound 0.0316 µM, first compound 0.0316 µM
[2] = second compound 0.0316 µM, first compound 0.1 µM
[3] = second compound 0.0316 µM, first compound 0.316 µM
[4] = second compound 0.0316 µM, first compound 1 µM
[5] = second compound 0.0316 µM, first compound 3.16 µM
[6] = second compound 0.0316 µM, first compound 10 µM
[7] = second compound 0.1 µM, first compound 0.0316 µM
[8] = second compound 0.1 µM, first compound 0.1 µM
[9] = second compound 0.1 µM, first compound 0.316 µM
[10] = second compound 0.1 µM, first compound 1 µM
[11] = second compound 0.1 µM, first compound 3.16 µM
[12] = second compound 0.1 µM, first compound 10 µM
[13] = second compound 0.316 µM, first compound 0.0316 µM
[14] = second compound 0.316 µM, first compound 0.1 µM
[15] = second compound 0.316 µM, first compound 0.316 µM
[16] = second compound 0.316 µM, first compound 1 µM
[17] = second compound 0.316 µM, first compound 3.16 µM
[18] = second compound 0.316 µM, first compound 10 µM
[19] = second compound 1 µM, first compound 0.0316 µM
[20] = second compound 1 µM, first compound 0.1 µM
[21] = second compound 1 µM, first compound 0.316 µM
[22] = second compound 1 µM, first compound 1 µM
[23] = second compound 1 µM, first compound 3.16 µM
[24] = second compound 1 µM, first compound 10 µM
[25] = second compound 3.16 µM, first compound 0.0316 µM
[26] = second compound 3.16 µM, first compound 0.1 µM
[27] = second compound 3.16 µM, first compound 0.316 µM
[28] = second compound 3.16 µM, first compound 1 µM
[29] = second compound 3.16 µM, first compound 3.16 µM
[30] = second compound 3.16 µM, first compound 10 µM
[31] = second compound 10 µM, first compound 0.0316 µM
[32] = second compound 10 µM, first compound 0.1 µM
[33] = second compound 10 µM, first compound 0.316 µM
[34] = second compound 10 µM, first compound 1 µM
[35] = second compound 10 µM, first compound 3.16 µM
[36] = second compound 10 µM, first compound 10 µM
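Further: spheroids exposed to compounds for 7 days before readout.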
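Wherever viability, T/C is given: 100% = DMSO vehicle wells with luminescence normalized to vehicle control.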

SMILES: O=C(c1cc(Cc2n[nH]c(=O)c3ccccc23)ccc1F)N1CCN(C(=O)C2CC2)CC1 + CN1CCN(c2cc(C(=O)Nc3cc4cc(-c5cnn(C)c5)ccc4cn3)ccn2)CC1
- IC50 (second compound 0.0316 µM): > 10 µM
- IC50 (second compound 0.1 µM): > 10 µM
- IC50 (second compound 0.316 µM): < 0.0316 µM
- IC50 (second compound 1 µM): < 0.0316 µM
- IC50 (second compound 3.16 µM): < 0.0316 µM
- IC50 (second compound 10 µM): < 0.0316 µM
- viability, T/C [1]: 110%
- viability, T/C [2]: 117%
- viability, T/C [3]: 109%
- viability, T/C [4]: 94.4%
- viability, T/C [5]: 128%
- viability, T/C [6]: 130%
- viability, T/C [7]: 122%
- viability, T/C [8]: 106%
- viability, T/C [9]: 139%
- viability, T/C [10]: 115%
- viability, T/C [11]: 148%
- viability, T/C [12]: 108%
- viability, T/C [13]: 23.3%
- viability, T/C [14]: 22.6%
- viability, T/C [15]: 24.8%
- viability, T/C [16]: 20.1%
- viability, T/C [17]: 19.8%
- viability, T/C [18]: 16%
- viability, T/C [19]: 0.19%
- viability, T/C [20]: 1.21%
- viability, T/C [21]: 0.25%
- viability, T/C [22]: 0.17%
- viability, T/C [23]: 0.18%
- viability, T/C [24]: 0.19%
- viability, T/C [25]: 0.15%
- viability, T/C [26]: 0.29%
- viability, T/C [27]: 1.69%
- viability, T/C [28]: 0.26%
- viability, T/C [29]: 2.21%
- viability, T/C [30]: 4.24%
- viability, T/C [31]: 1.42%
- viability, T/C [32]: 0.19%
- viability, T/C [33]: 3.03%
- viability, T/C [34]: 0.19%
- viability, T/C [35]: 0.25%
- viability, T/C [36]: 0.28%

SMILES: Nc1ccn(C2OC(CO)C(O)C2(F)F)c(=O)n1 (centres undefined) + CN1CCN(c2cc(C(=O)Nc3cc4cc(-c5cnn(C)c5)ccc4cn3)ccn2)CC1
- IC50 (second compound 0.0316 µM): 0.192 µM
- IC50 (second compound 0.1 µM): 0.242 µM
- IC50 (second compound 0.316 µM): < 0.0316 µM
- IC50 (second compound 1 µM): < 0.0316 µM
- IC50 (second compound 3.16 µM): < 0.0316 µM
- IC50 (second compound 10 µM): < 0.0316 µM
- viability, T/C [1]: 93.3%
- viability, T/C [2]: 62.8%
- viability, T/C [3]: 40.7%
- viability, T/C [4]: 33.8%
- viability, T/C [5]: 38%
- viability, T/C [6]: 38.3%
- viability, T/C [7]: 112%
- viability, T/C [8]: 74.6%
- viability, T/C [9]: 42.3%
- viability, T/C [10]: 32.8%
- viability, T/C [11]: 30.2%
- viability, T/C [12]: 29.7%
- viability, T/C [13]: 18%
- viability, T/C [14]: 21.2%
- viability, T/C [15]: 20.4%
- viability, T/C [16]: 19%
- viability, T/C [17]: 16.7%
- viability, T/C [18]: 17.5%
- viability, T/C [19]: 0.16%
- viability, T/C [20]: 0.19%
- viability, T/C [21]: 0.2%
- viability, T/C [22]: 0.11%
- viability, T/C [23]: 1.16%
- viability, T/C [24]: 1.27%
- viability, T/C [25]: 0.18%
- viability, T/C [26]: 2.52%
- viability, T/C [27]: 0.18%
- viability, T/C [28]: 0.15%
- viability, T/C [29]: 0.92%
- viability, T/C [30]: 1.45%
- viability, T/C [31]: 0.18%
- viability, T/C [32]: 1.54%
- viability, T/C [33]: 0.18%
- viability, T/C [34]: 0.17%
- viability, T/C [35]: 2.1%
- viability, T/C [36]: 4.24%
